Holding throughout (assay): growth of human tumour cells (NCI), 48 h
Assay [1] relates to NCI-H226 lung.
Assay [2] deals with K-562 leukemia.
Assay [3] deals with HCC-2998 colon.
The test system of assay [4] is OVCAR-8 ovarian.
In assay [5] the test system is SW-620 colon.
Assay [6] relates to SN12C renal.
Assay [7] has as its system 786-0 renal.
The subject of assay [8] is SK-MEL-28 melanoma.
In assay [9] the test system is MALME-3M melanoma.
The test system of assay [10] is SF-268 CNS.
Assay [11] relates to NCI-H460 lung.
Assay [12] concerns MCF7 breast.
For assay [13], the system named is IGROV1 ovarian.
Assay [14] has as its system U251 CNS.

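In this assay, cells in 96-well plates receive the compound at five concentrations for 48 hours. Endpoints are linearly interpolated between the surrounding concentrations. Definition used: TGI = concentration required for complete inhibition of growth.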 *1 amine or outer side, *2 acyl side, *3 side chain or, on linkers, in order; H or OH if unused. Where a SMILES comes first, the peptide text is derived from it. Bridges are numbered along the chain shown (N, C = ends). [ ]: non-standard residue; d: D form. X59 = COc1c(N[*:1])cccc1C(=O)O[C@H](C(=O)[C@H](C)C(=O)[*:2])C(C)C; X58 = CC(C)C[C@H](C(=O)[*:2])C(C)C(=O)C1CCCN1[*:1]; NMeY = CN[C@@H](Cc1ccc(O)cc1)C(=O)O; Lac = C[C@H](O)C(=O)O

Take `O=c1[nH]c2cc3[nH]c(=O)c(=O)[nH]c3cc2[nH]c1=O`: the TGI in assay [1], in assay [2], in [3], in assay [4], in assay [5] and in assay [6] was above 100 µM throughout. The TGI in [7], in assay [8], in [9], in assay [10], in assay [11] and in [12] was above 100 µM each time. In addition, the TGI in assay [13] and in assay [14] was above 100 µM in each case.

As to `CC1(Cc2cc3c(cc2C2(c4ccc([N+](=O)[O-])cc4)OCCO2)OCO3)OCCO1`, the TGI in [1], in assay [2], in assay [3], in [4], in assay [5] and in assay [6] was above 100 µM each time. The TGI in assay [7], in assay [8], in [9], in assay [10], in assay [11] and in assay [12] was above 100 µM each time. For the same compound, the TGI in assay [13] and in [14] was above 100 µM in each case.

For `CC(C)=CC[C@H]1C[C@@]2(CC=C(C)C)C(=O)/C(=C(/O)c3ccccc3)C(=O)[C@](CC=C(C)C)(C2=O)C1(C)C`, the TGI in assay [1] stood at 36.2 µM; in assay [2], 50.4 µM; in assay [3], 14.4 µM; in [4], 35 µM; in assay [5], 54.9 µM; in [6], 14.8 µM. Further, the TGI worked out at 21.4 µM in assay [7]; 30.3 µM in assay [8]; 27.9 µM in assay [9]; 39.4 µM in assay [10]; 11.5 µM in assay [11]; 21.5 µM in assay [12]. The results for the TGI in [13] and in assay [14] were 20.3 µM and 20.8 µM, respectively.

With `Cc1ncc([N+](=O)[O-])n1CCNC(=O)Cn1ccnc1[N+](=O)[O-]`, the TGI in assay [1], in assay [2], in assay [3], in assay [4], in assay [5] and in assay [6] was above 100 µM in each case. For the same compound, the TGI in assay [7], in assay [8], in assay [9], in assay [10], in assay [11] and in assay [12] was above 100 µM in each case. Also, the TGI in assay [13] and in [14] was above 100 µM in each case.

With `COc1ccc(C[C@H]2C(=O)O[C@H](C)[C@H](NC(=O)[C@@H](CC(C)C)C(C)C(=O)C3CCCN3C(=O)[C@H](C)O)C(=O)Nc3cccc(c3OC)C(=O)O[C@@H](C(C)C)C(=O)[C@H](C)C(=O)N[C@@H](CC(C)C)C(=O)N3CCC[C@H]3C(=O)N2C)cc1` (stereo partly specified) (H-[Lac][X58]T[X59]LP[NMeY](Me); ester 3-C), the TGI in assay [1], in assay [2], in assay [3], in assay [4], in assay [5] and in [6] was above 12.5 µM throughout. Moreover, the TGI in [7], in assay [8], in [9], in assay [10], in [11] and in assay [12] was above 12.5 µM each time. Besides, the TGI in [13] and in assay [14] was above 12.5 µM each time.

Take `CC[C@H]1C=CCC[C@@]2(C[C@@H]3CC[C@H]4[C@@H](C(=O)OCCCCCCCCCCCCCCCC(=O)N(CCCNC(C)=O)C[C@H](CCNC(C)=O)OC(C)=O)[C@@]5(CCC[C@@H](C)O5)NC(=[N+]34)N2)O1`: the TGI in assay [1] is 2.94 µM; in assay [2], 2.41 µM; in [3] it was 2.62 µM; in [4], 2.9 µM; in [5], 3.25 µM; in assay [6] it was 3.54 µM. Besides, the TGI came to 3.4 µM in assay [7]; 2.63 µM in [8]; 2.99 µM in assay [9]; 3.38 µM in [10]; 3.25 µM in assay [11]; 2.98 µM in assay [12]. For the same compound, the TGI in [13] came out at 2.66 µM; in assay [14] it was 2.11 µM.

On to `CC1CN=C(NS(=O)(=O)c2cc(C(=O)Nc3ccccc3)c(Cl)cc2S)NN1` (stereo unspecified), for which the TGI in assay [1], in [2], in assay [3], in assay [4], in [5] and in assay [6] was above 100 µM in each case. Also, the TGI in [7] is above 100 µM; in assay [8], above 100 µM; in assay [9], 77 µM; in assay [10], above 100 µM; in [11] it was above 100 µM; in [12] it was above 100 µM. The TGI in assay [13] was 83.3 µM; in [14], above 100 µM.

For `CC1=NN(C(=O)CC(=O)Nc2ccc(Cl)cc2)C(=O)C1N=Nc1ccc(S(=O)(=O)c2ccc(N=NC3C(=O)N(C(=O)CC(=O)Nc4ccc(Cl)cc4)N=C3C)cc2)cc1` (stereo unspecified), the TGI in [1], in assay [2], in [3], in assay [4], in assay [5] and in assay [6] was above 100 µM throughout. Moreover, the TGI in assay [7], in assay [8], in assay [9], in [10], in assay [11] and in assay [12] was above 100 µM in each case. Besides, the TGI in [13] was above 100 µM; in assay [14], 59.6 µM.

Take `CC(C)(C)OC(=O)NC(Cc1ccc(OCc2ccccc2)cn1)C(=O)O` (stereo unspecified): the TGI in assay [1], in assay [2], in assay [3], in [4], in assay [5] and in assay [6] was above 100 µM throughout. Besides, the TGI in assay [7], in assay [8], in [9], in assay [10], in [11] and in assay [12] was above 100 µM throughout. Besides, the TGI in assay [13] and in [14] was above 100 µM in each case.

The record behind these values is PubChem BioAssay (NCI).
